Laboratory results taken from patent publication US5834259A, “Process and composition for preparing D-aspartic acid” (Monsanto Company, priority 1996, dated 1998).

Experiments:
[1] = biological target: T1, L-aspartate-α-decarboxylase (Escherichia coli, UniProt P0A790); test: Temperature study, 37° C. (Example 9); format: biochemical, E. coli K12; conditions: for concentration in supernatant fluid / percent remaining: 1.0M, 100 g/l cells
T1 construct: expressed in transfected cells; host or cells: E. coli W3110 transformed with pIF309 = strain NS3291 (ATCC 98675), whole cells
Procedure: 133.1 g (1 mol) of D/L-aspartic acid was dissolved in deionized H2 O and the pH was adjusted to 7.0 with 10N NaOH, approximately 100 ml. Cells, freshly thawed from -80° C., were added to achieve a final concentration of 100 g/l. Three 2 L fermentors were each charged with 963 ml of substrate solution and 137 ml of cells and then heated to 37° C. and 45° C. while mixing at 300 rpm or heated to 50° C. while mixing at 450 rpm. Samples, approximately 1 ml, were removed over time and pH adjusted to 7.0 with either NaOH or HCl. After centrifugation to remove cells, the supernatant fluid was analyzed for both D- and L-aspartic acid.

[2] = biological target: T1, L-aspartate-α-decarboxylase; test: 1.0M D/L-aspartate, 100 g/l cells, reaction A (Example 6); format: biochemical, E. coli K12; conditions: for concentration in supernatant fluid: 1.0M, 100 g/l cells, 37° C.
Procedure: 1.0M D/L-aspartate was tested as a substrate for two enzyme cell loads, 100 g/l cells, referred to here as reaction "A", and 50 g/l cells, referred to here as reaction "B".
133.1 g of D/L-aspartic acid was dissolved in approximately 600 ml deionized H2 O and pH was adjusted to 7.0 with NaOH, using 100 ml of 10N NaOH and a small amount of 1.0N NaOH. The substrate for reaction A was brought to 963 ml with deionized H2 O. The reaction was started with 137 ml cells that were stored in the cold room. For reaction B, the substrate was brought to a volume of 981.5 ml. The reaction was started with […] cells.
Both reactions were carried out in 2 L fermentors at pH 7.0 without constant adjustments and at 37° C. Samples were removed over time, centrifuged and the supernatant fluid was diluted and submitted for D- and L-aspartic acid HPLC analysis.

T1 sequence (P0A790 25-126): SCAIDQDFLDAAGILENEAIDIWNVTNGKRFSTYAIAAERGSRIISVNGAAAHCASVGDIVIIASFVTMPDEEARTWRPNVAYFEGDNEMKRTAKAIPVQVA
T1 sequence (P0A790 1-24): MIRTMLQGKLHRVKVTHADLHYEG

SMILES: N[C@H](CC(=O)O)C(=O)O [D-Asp, D-aspartic acid]
- stability of the isomer [1]: stable
- concentration in supernatant fluid ([1]; 0.0000 hr): 55.000 mg/mL
- concentration in supernatant fluid ([1]; 2.5000 hr): 54.310 mg/mL
- percent remaining ([1]; 2.5000 hr): 98.745%
- concentration in supernatant fluid ([1]; 4.0000 hr): 54.440 mg/mL
- percent remaining ([1]; 4.0000 hr): 98.982%
- concentration in supernatant fluid ([1]; 6.0000 hr): 54.470 mg/mL
- percent remaining ([1]; 6.0000 hr): 99.036%
- concentration in supernatant fluid ([1]; 8.0000 hr): 54.760 mg/mL
- percent remaining ([1]; 8.0000 hr): 99.564%
- concentration in supernatant fluid ([1]; 10.000 hr): 55.840 mg/mL
- percent remaining ([1]; 10.000 hr): 101.53%
- concentration in supernatant fluid ([1]; 12.000 hr): 56.760 mg/mL
- percent remaining ([1]; 12.000 hr): 103.20%
- concentration in supernatant fluid ([1]; 20.000 hr): 55.460 mg/mL
- percent remaining ([1]; 20.000 hr): 100.84%
- concentration in supernatant fluid ([1]; 24.000 hr): 55.390 mg/mL
- percent remaining ([1]; 24.000 hr): 100.71%
- concentration in supernatant fluid ([1]; 29.000 hr): 53.990 mg/mL
- percent remaining ([1]; 29.000 hr): 98.164%
- concentration in supernatant fluid ([1]; 34.000 hr): 53.440 mg/mL
- percent remaining ([1]; 34.000 hr): 97.164%
- concentration in supernatant fluid ([1]; 44.000 hr): 52.960 mg/mL
- percent remaining ([1]; 44.000 hr): 96.291%
- concentration in supernatant fluid ([1]; 48.000 hr): 52.940 mg/mL
- percent remaining ([1]; 48.000 hr): 96.255%
- concentration in supernatant fluid ([1]; 68.000 hr): 49.940 mg/mL
- percent remaining ([1]; 68.000 hr): 90.800%
- concentration in supernatant fluid ([1]; 92.000 hr): 50.670 mg/mL
- percent remaining ([1]; 92.000 hr): 92.127%
- concentration in supernatant fluid ([2]; 0.0000 hr): 53.600 mg/mL
- concentration in supernatant fluid ([2]; 2.0000 hr): 50.680 mg/mL
- concentration in supernatant fluid ([2]; 4.5000 hr): 44.920 mg/mL
- concentration in supernatant fluid ([2]; 7.0000 hr): 42.260 mg/mL
- concentration in supernatant fluid ([2]; 22.500 hr): 35.680 mg/mL
- concentration in supernatant fluid ([2]; 24.000 hr): 34.420 mg/mL
- concentration in supernatant fluid ([2]; 31.000 hr): 32.660 mg/mL
- concentration in supernatant fluid ([2]; 37.500 hr): 27.950 mg/mL
- concentration in supernatant fluid ([2]; 47.000 hr): 20.710 mg/mL
- concentration in supernatant fluid ([2]; 50.500 hr): 18.490 mg/mL
- concentration in supernatant fluid ([2]; 53.800 hr): 13.730 mg/mL
- concentration in supernatant fluid ([2]; 58.000 hr): 13.410 mg/mL
- concentration in supernatant fluid ([2]; 70.000 hr): 6.1300 mg/mL
- concentration in supernatant fluid ([2]; 72.000 hr): 5.3900 mg/mL

SMILES: N[C@@H](CC(=O)O)C(=O)O [L-Asp, L-aspartic acid]
- concentration in supernatant fluid ([1]; 0.0000 hr): 53.700 mg/mL
- concentration in supernatant fluid ([1]; 2.5000 hr): 48.940 mg/mL
- percent remaining ([1]; 2.5000 hr): 91.136%
- concentration in supernatant fluid ([1]; 4.0000 hr): 47.600 mg/mL
- percent remaining ([1]; 4.0000 hr): 88.641%
- concentration in supernatant fluid ([1]; 6.0000 hr): 46.170 mg/mL
- percent remaining ([1]; 6.0000 hr): 85.978%
- concentration in supernatant fluid ([1]; 8.0000 hr): 44.810 mg/mL
- percent remaining ([1]; 8.0000 hr): 83.445%
- concentration in supernatant fluid ([1]; 10.000 hr): 42.120 mg/mL
- percent remaining ([1]; 10.000 hr): 78.436%
- concentration in supernatant fluid ([1]; 12.000 hr): 42.120 mg/mL
- percent remaining ([1]; 12.000 hr): 78.462%
- concentration in supernatant fluid ([1]; 20.000 hr): 35.960 mg/mL
- percent remaining ([1]; 20.000 hr): 66.965%
- concentration in supernatant fluid ([1]; 24.000 hr): 34.840 mg/mL
- percent remaining ([1]; 24.000 hr): 64.879%
- concentration in supernatant fluid ([1]; 29.000 hr): 28.040 mg/mL
- percent remaining ([1]; 29.000 hr): 54.078%
- concentration in supernatant fluid ([1]; 34.000 hr): 28.040 mg/mL
- percent remaining ([1]; 34.000 hr): 54.078%
- concentration in supernatant fluid ([1]; 44.000 hr): 21.670 mg/mL
- percent remaining ([1]; 44.000 hr): 40.354%
- concentration in supernatant fluid ([1]; 48.000 hr): 18.440 mg/mL
- percent remaining ([1]; 48.000 hr): 34.339%
- concentration in supernatant fluid ([1]; 68.000 hr): 5.9700 mg/mL
- percent remaining ([1]; 68.000 hr): 11.117%
- concentration in supernatant fluid ([1]; 92.000 hr): 0.915 mg/mL
- percent remaining ([1]; 92.000 hr): 1.7039%
- consumption of the isomer ([1]; by 99.75 hours): almost completely consumed
- concentration in supernatant fluid ([2]; 0.0000 hr): 54.850 mg/mL
- concentration in supernatant fluid ([2]; 0.0000 hr, listed as L-aspartate): 53.6 mg/mL
- concentration in supernatant fluid ([2]; 2.0000 hr): 49.340 mg/mL
- concentration in supernatant fluid ([2]; 4.5000 hr): 50.710 mg/mL
- concentration in supernatant fluid ([2]; 7.0000 hr): 50.230 mg/mL
- concentration in supernatant fluid ([2]; 22.500 hr): 54.490 mg/mL
- concentration in supernatant fluid ([2]; 24.000 hr): 50.780 mg/mL
- concentration in supernatant fluid ([2]; 31.000 hr): 51.450 mg/mL
- concentration in supernatant fluid ([2]; 37.500 hr): 53.850 mg/mL
- concentration in supernatant fluid ([2]; 47.000 hr): 52.370 mg/mL
- concentration in supernatant fluid ([2]; 50.500 hr): 51.080 mg/mL
- concentration in supernatant fluid ([2]; 53.800 hr): 46.500 mg/mL
- concentration in supernatant fluid ([2]; 58.000 hr): 50.040 mg/mL
- concentration in supernatant fluid ([2]; 70.000 hr): 52.400 mg/mL
- concentration in supernatant fluid ([2]; 72.000 hr): 50.430 mg/mL
- concentration in supernatant fluid ([2]; 72.000 hr, listed as L-aspartate): 5.39 mg/mL
- reduction of L-aspartate ([2]; after 72.0 hours, 1.0M substrate): 90%
